Test results reported in patent publication US6339078B1, “Methods of prevention and treatment of ischemic damage” (University of Florida Research Foundation, Inc., priority 1999, dated 2002).
“Also recorded” adds a separate entry of the source.

Assays:
[1] = tested on: ovariectomized rats, ischemia induced by middle cerebral artery occlusion (MCAO); experiment: Ischemic area in brain slices after MCAO, estrogen post-treatment at 40 or 90 minutes; type: in vivo, rat; details: administered 90 minutes after MCAO
[2] = Blood levels after single subcutaneous bolus injection in corn oil (radioimmunoassay); type: in vivo, male Sprague-Dawley rats; details: 100 μg/kg sc in corn oil
Procedure: The drug was dissolved in corn oil at 100 μg/ml and the final dosage delivered was 100 μg/kg. […] Venous blood was collected into heparinized tubes, centrifuged and the plasma was collected and frozen. Levels of 17β-estradiol were determined using a commercially supplied radioimmunoassay kit.

[3] = tested on: ovariectomized rats, ischemia induced by middle cerebral artery occlusion (MCAO); experiment: Ischemic area in brain slices after MCAO, estrogen pretreatment; type: in vivo, rat; details: for reduction of ischemic area vs sham: Silastic tube 24 h prior to MCAO, sacrifice 24 h after MCAO
[4] = tested on: primary rat brain capillary endothelial cells (BCEC); experiment: BCEC mortality under hypoglycemia (Trypan blue); type: cell-based; details: 2 nM; normal glucose 200 mg %
Procedure: Hypoglycemia experiments were undertaken. […] The glucose concentration of the culture media was then adjusted from 20 mg % to 200 mg % by adding appropriate amount of D-(+)-glucose to the glucose-free media and monitored by Glucose and L-Lactate Analyzer (YSI model 2300 STAT plus, YSI, Inc., Yellow Springs, Ohio). The hypoglycemic cultures were maintained for 24 hours or 48 hours prior to staining with Trypan blue. Cell mortality was counted using Trypan blue staining method. Cell death percentage was calculated as dead cell/alive cell×100%. Statistical methods used included two-way analysis of variance, applied to determine the significance of the difference among the experimental groups. Kruskal-Wallis nonparametric analysis was used for data presented as percentage. […] P<0.05 was considered significant.

[5] = tested on: primary rat brain capillary endothelial cells (BCEC); experiment: BCEC mortality under combined anoxia and hypoglycemia (Trypan blue); details: 2 nM; 100 mg % hypoglycemia and anoxia 2 hours
Procedure: Cell media contained 200 mg % or 100 mg % glucose. Culture dishes containing BCEC were placed in either an incubator or a nitrogen filled chamber for two hours. Trypan blue staining was used to distinguish live cells from dead cells. Two cell countings at two different hemacytometer squares were averaged. Mean±SEM are depicted (n=8.12). *<0.05 vs. corresponding vehicle control.
Nitrogen gas was influxed to replace the oxygen inside the chamber. The chamber was sealed and placed in the incubator for four hours for nonhypoglycemic cultures and 2 hours for hypoglycemic cultures.
Cell mortality was counted using Trypan blue staining method. Cell death percentage was calculated as dead cell/alive cell×100%.
Statistical methods used included two-way analysis of variance, applied to determine the significance of the difference among the experimental groups. Kruskal-Wallis nonparametric analysis was used for data presented as percentage. […] P<0.05 was considered significant.

[6] = tested on: ovariectomized rats, ischemia induced by middle cerebral artery occlusion (MCAO); experiment: Ischemic lesion volume (TTC) after MCAO, post-treatment at 0.5-4 hours; type: in vivo, rat; details: iv 100 μg/kg HPCD-complexed plus Silastic pellet at 0.5, 1, 2, or 3 hours post-occlusion; 48 hours after MCAO

Compound | reduction of ischemic area [1] [%] | blood level ([2]; 30 minutes after administration (peak)) | blood level ([2]; 4 hours) | blood level (in words) ([2]; by 25 hours) | ischemic area, percent of cross-sectional area of brain sections evaluated ([3]; pretreatment 24 h prior to MCAO, 3 brain slices, sham 25.6±5.7%) [%] | protective effect on ischemic area (in words) ([3]; tissue slices A-D, subcutaneous injection two hours prior to ischemic event) | difference in % cell death with and without estrogen (in words) [4] | protection of BCEC (in words) [5] | protection, ischemic lesion volume (in words) [6] | reduction of ischemic area vs sham ([3]; slice C) [%] | reduction of ischemic area vs sham ([3]; slice D) [%] | reduction of ischemic area vs sham ([3]; slice E) [%] | protective effect on ischemic area (in words) ([3]; tissue slices A-E, sustained subcutaneous delivery initiated 24 hours prior)
C[C@]12CC[C@@H]3c4ccc(O)cc4CC[C@H]3[C@@H]1CC[C@@H]2O [17β-estradiol] | 31 | 4,610 pg/ml | 2,004 pg/ml | near zero | 9.8±4.0 | significant protective effect | little difference | effective in protecting cultured BCEC | significant protection | – | – | – | –
C[C@]12CC[C@@H]3c4ccc(O)cc4CC[C@H]3[C@@H]1CC[C@H]2O [17α-estradiol] | – | – | – | – | – | – | – | – | – | 55 | 66 | 81 | significant protective effect; also recorded: smaller ischemic areas compared with the sham treated animals in all slices evaluated
